The values below come from patent publication US9517278B2, “Compound and photoacoustic imaging contrast medium containing the compound” (CANON KABUSHIKI KAISHA, priority 2012, dated 2016).

Data set [1] is described as follows: Evaluation of retentivity of compound in blood (fluorescent intensity of blood). The data set is classed as in vivo, nude mouse. The method, then: In order to examine the retentivity of the compound in blood, various compounds were administered to veins of nude mouse tails and the amounts of compounds remaining in blood were evaluated. […] The method for producing the compound was as described in Example 1. In Table 4, k represents 1,000. For example, 5 k represents 5,000.
The retentivity of the compound in blood was evaluated as described below. Blood samples were taken from a mouse 1 hour, 3 hours, 1 day, 2 days, and 1 week after administration, and the fluorescent intensity of the blood was measured using IVIS (registered trademark) Imaging System 200 Series (produced by Caliper Life Science Inc.). The amount of administration to the mouse was 0.5 mg/kg in terms of the amount of dye. […] It is considered that access of serum protein to the near-infrared organic dye was limited by bonding the branched chain PEG to the near-infrared organic dye, accumulation into a liver was reduced and, as a result, the retentivity in blood was acquired.

The nature of data set [2]: Tumor accumulation evaluated by fluorescence of tumor homogenate. The class given is in vivo. To be noted: intravenous, 32 nmol in terms of the amount of dye, colon 26 tumor-bearing mouse, tail vein, 32 nmol as dye, 24 hours after administration. As for the experimental part:
The tumor accumulation was evaluated by an intraveneous injection of 100 microliters (13 nmol in terms of ICG) of various ICG-PEG aqueous solution into tumor-bearing mouse models, in which various cells were subcutaneously transplanted into BALB/c Slc-nu/nu mice. The mice were euthanized with a carbon dioxide gas 24 hours after the administration. Subsequently, each cancer tissue was enucleated. The cancer tissue was transferred to a plastic tube, 1% Triton-X100 aqueous solution 1.25 times the cancer tissue in weight was added, and a homogenate was produced using a plastic pestle. […] The amount of dye in the cancer tissue (% ID/g) was quantified by using IVIS (registered trademark) Imaging System 200 Series (produced by Caliper Life Science Inc.) and measuring the fluorescent intensity of the solution of the dye extracted from the tumor tissue and the standard solution for calibration in the state of the plastic tube.
In order to evaluate the tumor accumulation of the compound, a contrast medium was administered to a tail vein of a tumor-bearing mouse which had been transplanted a colon 26 cell line. […] Then, tumor accumulation 1 day after administration of the contrast medium into the tumor-bearing mouse was evaluated by photoacoustic imaging and fluorescence. […] The amount of accumulation into a tumor of the mouse was evaluated using fluorescence, as described below. […]

For the next data set, the system named is colon 26 cell line. The experiment in a line: Tumor accumulation evaluated by photoacoustic imaging. The following applies: colon 26 tumor-bearing mouse, tail vein, 32 nmol as dye, 797 nm. The data set is classed as in vivo. The method, then: Photoacoustic signals were measured before a prepared compound was administered and at any given timing after administration by using the commercially available photoacoustic imaging apparatus (Nexus128, produced by Endra Inc.), so that three-dimensional reconfiguration data were obtained respectively. The photoacoustic intensity in a region of interest (ROI) was measured on the basis of the resulting three-dimensional reconfiguration data.
In the example according to the present invention, the amount of migration of the compound to a tumor mass was evaluated using a tumor-bearing model mouse. […] The fluorescent imaging was performed using IVIS (registered trademark) Imaging System and fluorescent intensity of a region of interest (ROI) of the tumor portion was measured.
In order to evaluate the tumor accumulation of the compound, a contrast medium was administered to a tail vein of a tumor-bearing mouse which had been transplanted a colon 26 cell line. […] Then, tumor accumulation 1 day after administration of the contrast medium into the tumor-bearing mouse was evaluated by photoacoustic imaging and fluorescence. […] Subsequently, the relative photoacoustic signal intensity 1 day after administration relative to before administration was calculated. The amount of accumulation into a tumor of the mouse was evaluated using fluorescence, as described below. […]

For data set [3] the following is noted: in vivo; cited from earlier work.
For data set [4] the following is noted: rat, ICG administered to the blood alone; cited from earlier work.
Setting [5] is: nude mouse, tail vein, 0.5 mg/kg as dye, ICG 1 day after administration = 1.

With `CC1(C)C(/C=C/C=C/C=C/C=C2/N(CCCCS(=O)(=O)[O-])c3ccc4ccccc4c3C2(C)C)=[N+](CCCCS(=O)(=O)[O-])c2ccc3ccccc3c21.[Na+]` [ICG, Indocyanine Green], the Retentivity in blood result in data set [1] (in words) is listed as “disappeared from the blood promptly”. Also, in data set [1] (setting [5]), the “Relative concentration in blood, 1 week after” value is 0.72; the “Relative concentration in blood, 1 hour after” value was found to be 36.7; the “Relative concentration in blood, 3 hours after” value turned out to be 19; the “Relative concentration in blood, 2 days after” value was found to be 0.89. Also, the “Relative concentration in blood, 1 day after” value in data set [1] (nude mouse, tail vein, 0.5 mg/kg as dye, ICG 1 day after administration = 1 (Table 6)) is listed as 1. The “Relative concentration in blood (1 day after administration)” value in data set [1] (nude mouse, tail vein, 0.5 mg/kg as dye, concentration of ICG in blood 1 day after administration = 1 (Table 5)) was 1. Besides, the tissue uptake at 24 h in data set [2] worked out at 0.1 %ID/g. The “Relative photoacoustic intensity (1 day after administration)” value in the data set on colon 26 cell line turned out to be 1. For the same molecule, the Half-life in blood entry in data set [3] is reported as “about several minutes”. Besides, the “Time after administration until photoacoustic signal intensity is reduced to the level of the blood” value in data set [4] is “several tens of minutes”.
